Reference: PubChem BioAssay (NCI)
“And” between values parts separate entries of the source, which are not always exact repeats. Identical values can stand only once.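 96-well plates; 48 h exposure; 5 concentrations. Endpoints by linear interpolation between flanking doses. Not reached: highest tested concentration assigned. GI50 marks 50% less growth. TGI: concentration producing complete growth inhibition.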

Tests used:
Assay in all cases: NCI tumour cell line growth inhibition, 48 h
[1] = tested on: SN12C renal
[2] = tested on: HT29 colon
[3] = tested on: IGROV1 ovarian
[4] = tested on: OVCAR-5 ovarian
[5] = tested on: SK-MEL-2 melanoma
[6] = tested on: MDA-MB-468 breast
[7] = tested on: NCI-H460 lung
[8] = tested on: SR leukemia
[9] = tested on: HCC-2998 colon
[10] = tested on: HS 578T breast
[11] = tested on: SW-620 colon
[12] = tested on: T-47D breast
[13] = tested on: U251 CNS
[14] = tested on: TK-10 renal
[15] = tested on: CCRF-CEM leukemia
[16] = tested on: 786-0 renal
[17] = tested on: A498 renal
[18] = tested on: NCI/ADR-RES ovarian
[19] = tested on: RPMI-8226 leukemia
[20] = tested on: OVCAR-8 ovarian
[21] = tested on: K-562 leukemia
[22] = tested on: DU-145 prostate
[23] = tested on: CAKI-1 renal
[24] = tested on: HOP-62 NSCLC
[25] = tested on: ACHN renal
[26] = tested on: RXF 393 renal
[27] = tested on: MALME-3M melanoma
[28] = tested on: MOLT-4 leukemia
[29] = tested on: MCF7 breast
[30] = tested on: NCI-H226 lung
[31] = tested on: SK-MEL-5 melanoma
[32] = tested on: NCI-H23 lung
[33] = tested on: EKVX NSCLC
[34] = tested on: HL-60(TB) leukemia
[35] = tested on: SK-MEL-28 melanoma
[36] = tested on: LOX IMVI melanoma
[37] = tested on: M14 melanoma
[38] = tested on: HOP-92 NSCLC
[39] = tested on: HCT-116 colon
[40] = tested on: HCT-15 colon
[41] = tested on: COLO 205 colon
[42] = tested on: A549 NSCLC
[43] = tested on: UO-31 renal
[44] = tested on: SNB-19 CNS
[45] = tested on: NCI-H522 lung
[46] = tested on: MDA-MB-435
[47] = tested on: UACC-257 melanoma
[48] = tested on: SNB-75 CNS
[49] = tested on: OVCAR-4 ovarian
[50] = tested on: BT-549 breast
[51] = tested on: SF-268 CNS
[52] = tested on: PC-3 prostate
[53] = tested on: SK-OV-3 ovarian
[54] = tested on: SF-295 CNS
[55] = tested on: KM12 colon
[56] = tested on: UACC-62 melanoma
[57] = tested on: MDA-MB-231 breast
[58] = tested on: SF-539 CNS
[59] = tested on: OVCAR-3 ovarian

SMILES: COc1cc2cc(C(=O)N3C[C@@H](CCl)c4c3cc(OC(=O)N(CCC(=O)N3CCN(C)CC3)[C@H]3CCSSC3)c3ccccc43)[nH]c2c(OC)c1OC
- GI50 [1]: 241 nM and 286 nM
- GI50 [2]: 474 nM and 270 nM
- TGI [2]: 1730 nM and 1050 nM
- GI50 [3]: 436 nM and 501 nM
- GI50 [4]: 560 nM
- TGI [4]: 1750 nM
- GI50 [5]: 417 nM and 214 nM
- TGI [5]: 777 nM and 381 nM
- GI50 [6]: 167 nM
- TGI [6]: 389 nM
- GI50 [7]: 99.6 nM and 55.7 nM
- TGI [7]: 2580 nM and 341 nM
- GI50 [8]: 56.7 nM and 34.2 nM
- GI50 [9]: 154 nM and 158 nM
- TGI [9]: 579 nM and 331 nM
- GI50 [10]: 689 nM and 1410 nM
- TGI [10]: 3920 nM and 6080 nM
- GI50 [11]: 399 nM and 221 nM
- TGI [11]: 1900 nM and 911 nM
- GI50 [12]: 631 nM and 696 nM
- TGI [12]: 25000 nM and 7830 nM
- GI50 [13]: 299 nM and 164 nM
- TGI [13]: 2800 nM and 423 nM
- GI50 [14]: 3370 nM
- TGI [14]: 11000 nM
- GI50 [15]: 559 nM and 219 nM
- GI50 [16]: 368 nM
- TGI [16]: 1340 nM
- GI50 [17]: 251 nM
- TGI [17]: 541 nM
- GI50 [18]: 292 nM
- TGI [18]: 940 nM
- GI50 [19]: 477 nM and 222 nM
- TGI [19]: 1850 nM and 1360 nM
- GI50 [20]: 275 nM and 186 nM
- GI50 [21]: 604 nM and 162 nM
- TGI [21]: 25000 nM and > 100000 nM
- GI50 [22]: 113 nM and 58.5 nM
- TGI [22]: 3390 nM and 1490 nM
- GI50 [23]: 272 nM
- TGI [23]: 4490 nM
- GI50 [24]: 166 nM and 110 nM
- TGI [24]: 1280 nM and 780 nM
- GI50 [25]: 83.1 nM
- TGI [25]: 571 nM
- GI50 [26]: 322 nM and 149 nM
- TGI [26]: 724 nM and 297 nM
- GI50 [27]: 405 nM and 280 nM
- TGI [27]: 796 nM and 744 nM
- GI50 [28]: 113 nM and 89.7 nM
- GI50 [29]: 55.7 nM and 35.3 nM
- TGI [29]: 652 nM and 1100 nM
- GI50 [30]: 1570 nM and 435 nM
- TGI [30]: 25000 nM and 4470 nM
- GI50 [31]: 327 nM
- TGI [31]: 656 nM
- GI50 [32]: 75.9 nM and 55.3 nM
- TGI [32]: 358 nM and 254 nM
- GI50 [33]: 365 nM and 315 nM
- TGI [33]: 1040 nM and 1900 nM
- GI50 [34]: 325 nM and 119 nM
- TGI [34]: 2790 nM and 952 nM
- GI50 [35]: 413 nM and 293 nM
- TGI [35]: 846 nM and 826 nM
- GI50 [36]: 295 nM and 208 nM
- TGI [36]: 781 nM and 891 nM
- GI50 [37]: 317 nM and 192 nM
- TGI [37]: 824 nM and 545 nM
- GI50 [38]: 657 nM and 346 nM
- TGI [38]: 2130 nM and 1830 nM
- GI50 [39]: 389 nM and 158 nM
- TGI [39]: 3620 nM and 558 nM
- GI50 [40]: 271 nM and 260 nM
- TGI [40]: 1110 nM and 1430 nM
- GI50 [41]: 354 nM and 342 nM
- TGI [41]: 837 nM and 1510 nM
- GI50 [42]: 393 nM
- TGI [42]: 1630 nM
- GI50 [43]: 333 nM and 221 nM
- TGI [43]: 948 nM and 545 nM
- GI50 [44]: 258 nM and 252 nM
- GI50 [45]: 433 nM and 263 nM
- TGI [45]: 1110 nM and 979 nM
- GI50 [46]: 404 nM and 213 nM
- TGI [46]: 788 nM and 529 nM
- GI50 [47]: 475 nM and 630 nM
- TGI [47]: 1150 nM and 3710 nM
- GI50 [48]: 388 nM and 181 nM
- TGI [48]: 1080 nM and 905 nM
- GI50 [49]: 513 nM and 464 nM
- TGI [49]: 1270 nM and 4990 nM
- GI50 [50]: 361 nM and 228 nM
- TGI [50]: 799 nM and 989 nM
- GI50 [51]: 403 nM and 187 nM
- GI50 [52]: 480 nM and 722 nM
- TGI [52]: 6150 nM and 6130 nM
- GI50 [53]: 313 nM and 262 nM
- TGI [53]: 1310 nM and 714 nM
- GI50 [54]: 113 nM and 145 nM
- TGI [54]: 1750 nM and 545 nM
- GI50 [55]: 535 nM and 268 nM
- TGI [55]: 1640 nM and 1050 nM
- GI50 [56]: 259 nM and 271 nM
- TGI [56]: 587 nM and 1220 nM
- GI50 [57]: 516 nM and 579 nM
- TGI [57]: 1140 nM and 8190 nM
- GI50 [58]: 284 nM and 167 nM
- TGI [58]: 642 nM and 409 nM
- GI50 [59]: 236 nM
- TGI [59]: 581 nM
